# Assay results: patent US20200085895A1, “PUNICALAGIN COMPOSITIONS AND METHODS FOR THE TREATMENT OF DISORDERS ARISING FROM METHYLGLYOXAL-INDUCED DNA DAMAGE” (Verdure Sciences, priority 2018, published 2020)
# “Also recorded” adds a separate entry of the source.
# Assays:
# 9mer ss-DNA = assay: Glycation assay and LC-MS analysis of MGO-induced DNA damage; type: biochemical; details: FIG. 1
# Description: DNA Oligonucleotide Synthesis. Nine-mer single stranded DNA oligonucleotide (9mer ss-DNA) with the sequence 5′-TTTTGTTTT-3′ containing a single guanine base was synthesized by using solid-phase phosphoramidite chemistry as previously described^2 on MerMade-4 DNA synthesizer. The oligonucleotide was purified by using Thermo Scientific DNAPac PA100 Oligonucleotide anion-exchange column (4×250 mm, 13 μm) with two mobile phases. Solvent A was water, and solvent B was 1.5M ammonium acetate in water. The oligonucleotide was characterized by HPLC electrospray ionization (ESI) triple quadrupole-TOF mass spectrometry (MS). The concentration of oligonucleotide was determined by measuring UV absorbance at 260 nm on a NanoDrop spectrophotometer.
# Glycation Assay and LC-MS Analysis. […] LC-MS analysis was carried out on AB Sciex triple quadrupole-TOF 4600 mass spectrometer. […]
# Statistical Analysis. […] The data between two groups was assessed under the two-tailed Student's t test. p-value<0.05 was considered as statistically significant. […]
# HaCaT cells [1] = assay: Protective effect on MGO induced cell damage model (CTG 2.0); type: cell-based, human; details: 12.5, 25, and 50 μM pre-treatment 2 hours, then 400 μM MGO 24 hours; FIG. 5
# Protocol: (§1) HaCaT cells which were derived from human adult keratinocytes were bought from American Type Culture Collection (Manassas, Va., USA). The cells were maintained in DMEM supplemented with 5% FBS at 37° C. under an atmosphere of 5% CO2 and 95% air. The culture medium was replaced every other day.
# Briefly, HaCaT cells were seeded at about 50000 cells/ml to yield 50-60% confluence in standard white-walled clear bottom 96-well plates and 6-well plates. After 12 h incubation cells were pre-treated with different concentrations of PE (0, 6.25, 12.5, 25, 50, 100, 200 μg/mL), PA (0, 3.13, 6.25, 12.5, 25, 50, 100, 200 μM), EA (0, 3.13, 6.25, 12.5, 25, 50, 100, 200 μM), and UA (0, 3.13, 6.25, 12.5, 25, 50, 100, 200 μM) for 2 hours. Then cells were washed with PBS twice and treated with 400 μM MGO for 24 hours. Cellular viability was detected using cells in 96-well plate via CTG 2.0, and cell images were taken with EVOS Cell Imaging System (Invitrogen, Waltham, Mass., USA) using cells in 6-well plates after crystal violet stain.
# HaCaT cells [2] = assay: Reactive oxygen species (ROS) assay, DCFDA; type: cell-based, human; details: MGO 400 μM 24 h, FIG. 6
# Protocol: HaCaT cells were seeded at about 50 000 cells/ml to yield 50-60% confluence in standard white-walled clear bottom 96-well plates and 6-well plates in DMEM. After 12 h incubation cells were pre-treated with concentrations of PE (0, 6.25, 12.5, 25, 50, 100, 200 μg/mL), PA (0, 3.13, 6.25, 12.5, 25, 50, 100, 200 μM), EA (0, 3.13, 6.25, 12.5, 25, 50, 100, 200 μM), and UA (0, 3.13, 6.25, 12.5, 25, 50, 100, 200 μM) for 2 hours. Then, the medium was replaced with DMEM containing 20 μM DCFDA and MGO (400 μM) for 24 h. After incubation, all the wells were washed with PBS twice. Subsequently, the fluorescence signals from 96-well plates were read at excitation and emission wavelengths of 485 and 525 nm, respectively, using a Spectra Max M2 spectrometer (Molecular Devices, Sunnyvale, Calif., USA). Cells images were taken with EVOS Cell Imaging System (Invitrogen, Waltham, Mass., USA) using 6-well plates cells.
# HaCaT cells [3] = assay: Hoechst 33342 staining, MGO-induced DNA damage; type: cell-based, human; details: 50 μM pre-treatment 2 hours, 400 μM MGO 24 hours; FIG. 7
# Protocol: HaCaT cells were seeded at about 50,000 cells/ml to yield 50-60% confluency in a standard 6-well plate. Cells were pre-treated with PE 50 μg/mL, PA 50 μM, EA 50 μM, and UA 50 μM, respectively for 2 hours. Then cells were washed with PBS once and treated with 400 μM of MGO for 24 hours. After that cells were washed with PBS twice and then incubated with 250 μl Hoechst 33342 (1:300 dilute with PBS) at room temperature for 15 minutes. Then cells were fixed with 75% ethanol for 15 minutes, followed by imaging with EVOS Cell Imaging System (Invitrogen, Waltham, Mass., USA).
# HaCaT cells [4] = assay: Alkaline comet assay, MGO-induced DNA damage; type: cell-based, human; details: for protective effect on MGO induced DNA damage (comet assay, tail DNA): 50 μM pre-treatment 2 hours, MGO 400 μM 24 h, FIG. 8
# Protocol: HaCaT cells were seeded at about 100 000 cells/ml to yield 80-90% confluence in standard 6-well plates. […] After incubation, the cells were washed with PBS twice and then treated with MGO (400 μM) for 24 h. After that, comet assay was performed as per the protocol provided by [sequence] (4250-050-K). Briefly, cells were collected and combined with molten LMAgarose at a ratio of 1:10, pipetted onto Comet slides, incubate in Lysis Solution at 4° C. overnight, immerse slides in Alkaline Unwinding Solution for 20 minutes, apply electrophoresis in Alkaline Electrophoresis Solution at 21 volts for 30 minutes, fixed in 75% ethanol for 15 minutes, dry in 37° C. for 15 minutes and then stain in diluted SYBR GOLD, images were taken with EVOS Cell Imaging System (Invitrogen, Waltham, Mass., USA) and analyzed via CASP.
# HaCaT cells [5] = assay: Transwell assay (cell migration ability); type: cell-based, human; details: 50 μM pre-treatment 2 hours, 400 μM MGO 24 h; FIG. 9B
# Protocol: Cell migration ability was measured by transwell assay. HaCaT cells in 6-well plates were cultured up to about 80-90% confluence. Then cells were pretreated with PE 50 μg/mL, PA 50 μM, EA 50 μM, and UA 50 μM, respectively for 2 hours, then washed with PBS twice. After that, cells were exposed to 400 μM of MGO for 24 h. Then, cells were digested with trypsin and centrifuged at 300 g for 5 min. Then, 2.5×10^5 cell were suspended in 1 ml serum free DMED. 100 μl of serum free DMEM were added into the upper chamber and incubated for 5 minutes, then 600 μl DMEM containing 5% FBS were added to the 24 well plate (lower chamber). After that 300 μl of cell suspension were added into the upper chamber. After 12 h incubation, cells in upper chamber were washed with PBS and fixed with 75% ethanol for 15 minutes. Then cells in upper chamber were stained with Crystal violet for 10 minutes and washed for 5 times. Cells inside the upper chamber were removed by swab. Then, pictures were taken with EVOS Cell Imaging System (Invitrogen, Waltham, Mass., USA). After that stained cells were incubated in 75% ethanol for 15 minutes for decoloration. Then, optical density of the decoloration solution in 570 nm was calculated via Spectra Max M2 spectrometer (Molecular Devices, Sunnyvale, Calif., USA).
# HaCaT cells [6] = assay: Wound healing model (in vitro scratch healing assay); type: cell-based, human; details: 50 μM pre-treatment 2 hours, 400 μM MGO 48 h; FIG. 9D, 9E
# Protocol: as §1
# Wound healing model was constructed with an in vitro scratch healing assay performed as described previously with certain modifications.^4 HaCaT cells in 6-well plates were cultured up to about 80-90% confluence. Then cells were pretreated with PE 50 μg/mL, PA 50 μM, EA 50 μM, and UA 50 μM, respectively for 2 hours. After the treatments, a narrow wound-like gap in the cell monolayer was created with a […] pipette tip in each well. The shedding cells were washed off with PBS and then the images were captured with EVOS Cell Imaging System (Invitrogen, Waltham, Mass., USA). The cells were further exposed to 400 μM MGO for 48 h and the cell images were captured with EVOS Cell Imaging System (Invitrogen, Waltham, Mass., USA). Gap area was analyzed in image J, a software quantifying visualization image data, and the wound healing rate was calculated as follows=[…]/Gap Area(0 h)×100%.
# HaCaT cells [7] = assay: Cell viability of HaCaT cells exposed to test substances (CTG 2.0); type: cell-based, human; details: 0-200 μM, 24 hours, FIG. 3
# Protocol: as §1
# Cellular viability was assessed using the Cell Titer Glo2.0 (CTG 2.0) one-step assay. Briefly, HaCaT cells were seeded at about 50 000 cells/ml to yield 50-60% confluence in a standard white-walled clear bottom 96-well plate. HaCaT cells were exposed to different concentration of PE (0, 6.25, 12.5, 25, 50, 100, 200 μg/mL), PA (0, 3.13, 6.25, 12.5, 25, 50, 100, 200 μM), EA (0, 3.13, 6.25, 12.5, 25, 50, 100, 200 μM), and UA (0, 3.13, 6.25, 12.5, 25, 50, 100, 200 μM) for 24 hours. Following the pre-determined incubation period of 24 hours, CTG 2.0 was added in a 1:1 ratio with existing media and mixed for 5 minutes on an orbital shaker prior to luminescence measurement (Spectramax M2, Molecular Devices, Sunnyvale, Calif., USA).
# HaCaT cells [8] = assay: MGO induced cell damage model (CTG 2.0, crystal violet staining); type: cell-based, human; details: 24 hours
# Protocol: as §1
# Briefly, HaCaT cells were seeded at about 50000 cells/ml to yield 50-60% confluence in standard white-walled clear bottom 96-well plates and 6-well plates. After 12 h incubation cells were treated with different concentrations of MGO ([…], 200 μM, 300 μM, 400 μM, 500 μM and 600 μM) for 24 hours respectively and use non-treated group as control. Cellular viability was detected using cells in 96-well plates via CTG 2.0. […] At higher concentrations than 400 μM the damaged caused by MGO to the cells was extreme. Morphological analysis was conducted to evaluate cell damage with crystal violet staining method in 6-well plates as per the below mentioned procedure.
# Briefly crystal violet staining were carried with protocol provided by sigma. The staining solution was prepared by dissolve 5 g of crystal violet powder into 100 ml 20% ethanol to make. HaCaT cells in 6-well plates were fixed with 75% ethanol 15 minutes in room temperature. Then cells were incubated with staining solution for 10 minutes. After that cells were washed with PBS for 5 times. Subsequently, pictures were taken under EVOS Cell Imaging System (Invitrogen, Waltham, Mass., USA).
# Excessive accumulation of MGO is harmful for skin cells, so the effects of MGO on cell viability at various concentrations on HaCaT cells were evaluated first.
smiles,measurement,setting,value
"O=C1O[C@H]2[C@@H]3OC(=O)c4cc(O)c(O)c(O)c4-c4c(O)c(O)c5oc(=O)c6c(c(O)c(O)c7oc(=O)c4c5c76)-c4c(cc(O)c(O)c4O)C(=O)OC[C@H]3OC(O)[C@@H]2OC(=O)c2cc(O)c(O)c(O)c2-c2c1cc(O)c(O)c2O (mixture of isomers) [PA, punicalagin]",protective effect against methylglyoxal (MGO)-induced DNA damage,"9mer ss-DNA; 200 μM 9mer ss-DNA, 200 μM MGO, pH 7.4, 37° C., 7 days",protective effect
same,activity in reducing DNA damage compared with aminoguanidine (AG) positive control,9mer ss-DNA; equivalent concentration (50 μM),considerably more active
same,"cell viability of HaCaT cells exposed to MGO, compared to non-treated group",HaCaT cells [1],significantly increased cell viability
same,"production of MGO induced ROS in HaCaT cells, compared to non-treated group","HaCaT cells [2]; 12.5, 25, and 50 μM pre-treatment 2 hours",significantly reduced the production of MGO induced ROS
same,DNA damage level caused by MGO (Hoechst staining),HaCaT cells [3],can reduce the DNA damage level
same,"protective effect on MGO induced DNA damage (comet assay, tail DNA)",HaCaT cells [4],protective effect
same,cell migration ability (transwell assay),HaCaT cells [5],promotive effects
same,wound healing process in the presence of MGO,HaCaT cells [6],can promote the wound healing process
"O=c1oc2c(O)c(O)cc3c(=O)oc4c(O)c(O)cc1c4c23 [EA, ellagic acid]",cytotoxicity to HaCaT cells,HaCaT cells [7],not cytotoxic
same,"production of MGO induced ROS in HaCaT cells, compared to non-treated group",HaCaT cells [2]; 50 μM pre-treatment 2 hours,significantly reduced the production of MGO induced ROS
same,DNA damage level caused by MGO (Hoechst staining),HaCaT cells [3],can reduce the DNA damage level
same,"protective effect on MGO induced DNA damage (comet assay, tail DNA)",HaCaT cells [4],no protective effects
same,cell migration ability (transwell assay),HaCaT cells [5],promotive effects
"CC(=O)C=O [MGO, methylglyoxal]",effect of MGO on HaCaT cell viability,HaCaT cells [8]; MGO 100-300 μM,did not affect the cell viability; also recorded: non-toxic
same,effect of MGO on HaCaT cell viability,HaCaT cells [8]; MGO at 400 μM or higher,significant cytotoxicity
same,effect of MGO on HaCaT cell viability,HaCaT cells [8]; MGO higher than 400 μM,extreme; also recorded: extremely cytotoxic
same,percentage of fracture DNA compared to control group (comet assay),"HaCaT cells [4]; MGO 400 μM alone, 24 h",could increase the percentage of fracture DNA
"O=c1oc2cc(O)ccc2c2ccc(O)cc12 [UA, urolithin A]",cytotoxicity to HaCaT cells,HaCaT cells [7],not cytotoxic
same,"production of MGO induced ROS in HaCaT cells, compared to non-treated group",HaCaT cells [2]; 25 and 50 μM pre-treatment 2 hours,significantly reduced the production of MGO induced ROS
same,DNA damage level caused by MGO (Hoechst staining),HaCaT cells [3],can reduce the DNA damage level
same,"protective effect on MGO induced DNA damage (comet assay, tail DNA)",HaCaT cells [4],no protective effects
same,cell migration ability (transwell assay),HaCaT cells [5],promotive effects
